Source: ChEMBL document CHEMBL4393680, “Design, synthesis and biological evaluation of novel thioquinazolinone-based 2-aminobenzamide derivatives as potent histone deacetylase (HDAC) inhibitors” (Eur J Med Chem, 2019)
Active and inactive are the calls of the source. The calls are words filed in the database; no cut-off is given here.

What was measured:
A-375 [1] = test: Antiproliferative activity against human A375 cells assessed as reduction in cell growth at 2 uM incubated for 72 hrs by CCK-8 assay relative to control; type: functional; settings: A-375, 72 h
SMMC-7721 [2] = test: Induction of apoptosis in human SMMC7721 cells assessed as late apoptotic cells at 0.25 uM incubated for 48 hrs by Annexin-V-FITC/propidium iodide staining based flow cytometry (Rvb=1.73%); type: functional
A549 [3] = test: Antiproliferative activity against human A549 cells assessed as reduction in cell growth at 8 uM incubated for 72 hrs by CCK-8 assay relative to control; type: functional; settings: A549, 72 h
SMMC-7721 [4] = test: Inhibition of colony formation in human SMMC7721 cells incubated for 10 days by crystal violet staining based assay; type: functional, cell-based
NIH3T3 = test: Cytotoxicity against mouse NIH/3T3 cells assessed as reduction in cell viability after 48 hrs by CCK8 assay; type: cell-based; settings: NIH3T3, 48 h
SMMC-7721 [5] = test: Cell cycle arrest in human SMMC7721 cells assessed as accumulation at G2/M phase at 0.25 uM incubated for 48 hrs by propidium iodide staining based flow cytometry (Rvb=16.17%); type: functional
HCT-116 [6] = test: Antiproliferative activity against human HCT116 cells assessed as reduction in cell growth at 8 uM incubated for 72 hrs by CCK-8 assay relative to control; type: functional; settings: HCT-116, 72 h
SMMC-7721 [7] = test: Induction of apoptosis in human SMMC7721 cells assessed as late apoptotic cells at 1 uM incubated for 48 hrs by Annexin-V-FITC/propidium iodide staining based flow cytometry (Rvb=1.73%); type: functional
A549 [8] = test: Antiproliferative activity against human A549 cells assessed as reduction in cell growth incubated for 72 hrs by CCK-8 assay; type: functional, cell-based; settings: A549, 72 h
SMMC-7721 [9] = test: Induction of apoptosis in human SMMC7721 cells assessed as necrotic cells at 0.25 uM incubated for 48 hrs by Annexin-V-FITC/propidium iodide staining based flow cytometry (Rvb=1.88%); type: functional
HeLa [10] = test: Antiproliferative activity against human HeLa cells assessed as reduction in cell growth at 2 uM incubated for 72 hrs by CCK-8 assay relative to control; type: functional
SMMC-7721 [11] = test: Cell cycle arrest in human SMMC7721 cells assessed as accumulation at S phase at 1 uM incubated for 48 hrs by propidium iodide staining based flow cytometry (Rvb=6.83%); type: functional
A-375 [12] = test: Antiproliferative activity against human A375 cells assessed as reduction in cell growth incubated for 72 hrs by CCK-8 assay; type: functional, cell-based; settings: A-375, 72 h
SMMC-7721 [13] = test: Antiproliferative activity against human SMMC7721 cells assessed as reduction in cell growth at 8 uM incubated for 72 hrs by CCK-8 assay relative to control; type: functional; settings: SMMC-7721, 72 h
SMMC-7721 [14] = test: Cell cycle arrest in human SMMC7721 cells assessed as accumulation at G0/G1 phase at 4 uM incubated for 48 hrs by propidium iodide staining based flow cytometry (Rvb=77%); type: functional
Histone deacetylase 2 = Histone deacetylase 2 (Homo sapiens, UniProt Q92769); test: Inhibition of HDAC2 in human SMMC7721 cells assessed as increase in H3K9 acetylation at 1uM incubated for 48 hrs by DAPI staining based confocal fluorescence microscopy; type: cell-based
Histone deacetylase 2, sequence (Q92769 whole entry): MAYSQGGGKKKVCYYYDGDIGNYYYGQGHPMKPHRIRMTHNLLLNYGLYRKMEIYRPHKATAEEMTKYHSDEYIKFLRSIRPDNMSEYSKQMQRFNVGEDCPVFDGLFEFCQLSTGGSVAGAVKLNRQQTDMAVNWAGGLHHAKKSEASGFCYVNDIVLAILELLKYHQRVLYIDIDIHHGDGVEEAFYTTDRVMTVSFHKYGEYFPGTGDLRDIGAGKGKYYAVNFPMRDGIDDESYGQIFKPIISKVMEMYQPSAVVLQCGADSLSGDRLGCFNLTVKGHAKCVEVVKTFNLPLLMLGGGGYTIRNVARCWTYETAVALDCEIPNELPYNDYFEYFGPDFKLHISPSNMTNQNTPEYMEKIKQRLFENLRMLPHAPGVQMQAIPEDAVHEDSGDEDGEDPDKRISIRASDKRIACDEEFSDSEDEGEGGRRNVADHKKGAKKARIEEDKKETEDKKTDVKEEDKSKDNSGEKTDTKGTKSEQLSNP

HeLa [15] = test: Antiproliferative activity against human HeLa cells assessed as reduction in cell growth incubated for 72 hrs by CCK-8 assay; type: functional, cell-based
SMMC-7721 [16] = test: Cell cycle arrest in human SMMC7721 cells assessed as accumulation at G0/G1 phase at 1 uM incubated for 48 hrs by propidium iodide staining based flow cytometry (Rvb=77%); type: functional
SMMC-7721 [17] = test: Cell cycle arrest in human SMMC7721 cells assessed as accumulation at S phase at 4 uM incubated for 48 hrs by propidium iodide staining based flow cytometry (Rvb=6.83%); type: functional
SMMC-7721 [18] = test: Induction of apoptosis in human SMMC7721 cells assessed as viable cells at 0.25 uM incubated for 48 hrs by Annexin-V-FITC/propidium iodide staining based flow cytometry (Rvb=93.5%); type: functional; settings: SMMC-7721, 48 h, read-out: Activity
SMMC-7721 [19] = test: Induction of apoptosis in human SMMC7721 cells assessed as early apoptotic cells at 0.25 uM incubated for 48 hrs by Annexin-V-FITC/propidium iodide staining based flow cytometry (Rvb=2.88%); type: functional
SMMC-7721 [20] = test: Induction of apoptosis in human SMMC7721 cells assessed as necrotic cells at 1 uM incubated for 48 hrs by Annexin-V-FITC/propidium iodide staining based flow cytometry (Rvb=1.88%); type: functional
SMMC-7721 [21] = test: Induction of apoptosis in human SMMC7721 cells incubated for 48 hrs by Annexin-V-FITC/propidium iodide staining based flow cytometry; type: functional, cell-based
HCT-116 [22] = test: Antiproliferative activity against human HCT116 cells assessed as reduction in cell growth at 2 uM incubated for 72 hrs by CCK-8 assay relative to control; type: functional; settings: HCT-116, 72 h
SMMC-7721 [23] = test: Induction of apoptosis in human SMMC7721 cells assessed as necrotic cells at 4 uM incubated for 48 hrs by Annexin-V-FITC/propidium iodide staining based flow cytometry (Rvb=1.88%); type: functional
SMMC-7721 [24] = test: Induction of apoptosis in human SMMC7721 cells assessed as early apoptotic cells at 1 uM incubated for 48 hrs by Annexin-V-FITC/propidium iodide staining based flow cytometry (Rvb=2.88%); type: functional
SMMC-7721 [25] = test: Cell cycle arrest in human SMMC7721 cells assessed as accumulation at S phase incubated for 48 hrs by propidium iodide staining-based flow cytometry; type: functional

Work on `COc1ccc2c(=O)n(C)c(SCc3ccc(C(=O)Nc4ccccc4N)cc3)nc2c1` yielded an inhibition at 2 µM (A-375 [1]) of 52.2%, an Activity (SMMC-7721 [2]) of 18.9% and an inhibition at 8 µM (A549 [3]) of 82.8%. The inhibition (SMMC-7721 [4]) was “Dose-dependent effect”, the IC50 (NIH3T3) was 2.53 µM and the Activity (SMMC-7721 [5]) was 11.67%. The inhibition at 8 µM (HCT-116 [6]) was 91.8%, the Activity (SMMC-7721 [7]) was 45.4% and the IC50 (A549 [8]) was 3.06 µM. For the same compound, the Activity (SMMC-7721 [9]) was 5.77%, the inhibition at 2 µM (HeLa [10]) was 57.5% and the Activity (SMMC-7721 [11]) was 19.34%. For the same compound, the IC50 (A-375 [12]) was 0.98 µM, the inhibition at 8 µM (SMMC-7721 [13]) was 79.3% and the Activity (SMMC-7721 [14]) was 46.09%. For the same compound, the inhibition (Histone deacetylase 2) was “Active”, the IC50 (HeLa [15]) was 1.49 µM and the Activity (SMMC-7721 [16]) was 58.1%. It also gave an Activity (SMMC-7721 [17]) of 22.52%, a viability at 0.25 µM (SMMC-7721 [18]) of 66% and an Activity (SMMC-7721 [19]) of 9.27%. For the same compound, the Activity (SMMC-7721 [20]) was 10.8%, the Activity (SMMC-7721 [21]) was “Dose-dependent effect” and the inhibition at 2 µM (HCT-116 [22]) was 73.1%. The Activity (SMMC-7721 [23]) was 10.6% and the Activity (SMMC-7721 [24]) was 11.6%.
With `Cn1c(SCc2ccc(C(=O)Nc3ccccc3N)cc2)nc2cc(Br)ccc2c1=O` the inhibition at 2 µM (A-375 [1]) was 34.5%, the Activity (SMMC-7721 [2]) was 9.88% and the inhibition at 8 µM (A549 [3]) was 66.2%. The inhibition (SMMC-7721 [4]) was “Dose-dependent effect”, the IC50 (NIH3T3) was 4.02 µM and the Activity (SMMC-7721 [5]) was 18.88%. For the same compound, the inhibition at 8 µM (HCT-116 [6]) was 88.4%, the Activity (SMMC-7721 [7]) was 33.8% and the IC50 (A549 [8]) was 4.6 µM. The Activity (SMMC-7721 [9]) was 4.73%, the inhibition at 2 µM (HeLa [10]) was 32.3% and the Activity (SMMC-7721 [11]) was 18.28%. For the same compound, the IC50 (A-375 [12]) was 2.84 µM, the inhibition at 8 µM (SMMC-7721 [13]) was 70.6% and the Activity (SMMC-7721 [14]) was 56.05%. For the same compound, the inhibition (Histone deacetylase 2) was “Active”, the IC50 (HeLa [15]) was 3.97 µM and the Activity (SMMC-7721 [16]) was 56.35%. It also gave an Activity (SMMC-7721 [17]) of 24.16%, a viability at 0.25 µM (SMMC-7721 [18]) of 79.4% and an Activity (SMMC-7721 [19]) of 6.01%. The Activity (SMMC-7721 [20]) was 13.6%, the Activity (SMMC-7721 [21]) was “Dose-dependent effect” and the Activity (SMMC-7721 [25]) was “Dose-dependent effect”. For the same compound, the inhibition at 2 µM (HCT-116 [22]) was 72.4%, the Activity (SMMC-7721 [23]) was 15.1% and the Activity (SMMC-7721 [24]) was 3.12%.
`CCn1c(SCc2ccc(/C=C/C(=O)Nc3ccccc3N)cc2)nc2cc(OC)ccc2c1=O` gave an inhibition at 2 µM (A-375 [1]) of 55%, an Activity (SMMC-7721 [2]) of 9.65% and an inhibition at 8 µM (A549 [3]) of 78.2%. For the same compound, the inhibition (SMMC-7721 [4]) was “Dose-dependent effect”, the IC50 (NIH3T3) was 4.8 µM and the Activity (SMMC-7721 [5]) was 17.67%. For the same compound, the inhibition at 8 µM (HCT-116 [6]) was 80.5%, the Activity (SMMC-7721 [7]) was 28.8% and the IC50 (A549 [8]) was 1.76 µM. It also gave an Activity (SMMC-7721 [9]) of 4.51%, an inhibition at 2 µM (HeLa [10]) of 24% and an Activity (SMMC-7721 [11]) of 16.13%. It also gave an IC50 (A-375 [12]) of 0.94 µM, an inhibition at 8 µM (SMMC-7721 [13]) of 79.7% and an Activity (SMMC-7721 [14]) of 53.62%. The inhibition (Histone deacetylase 2) was “Active”, the IC50 (HeLa [15]) was 3.41 µM and the Activity (SMMC-7721 [16]) was 50.71%. For the same compound, the Activity (SMMC-7721 [17]) was 28.7%, the viability at 0.25 µM (SMMC-7721 [18]) was 79.3% and the Activity (SMMC-7721 [19]) was 6.55%. The Activity (SMMC-7721 [20]) was 8.91%, the Activity (SMMC-7721 [21]) was “Dose-dependent effect” and the Activity (SMMC-7721 [25]) was “Dose-dependent effect”. For the same compound, the inhibition at 2 µM (HCT-116 [22]) was 67.3%, the Activity (SMMC-7721 [23]) was 10% and the Activity (SMMC-7721 [24]) was 16.4%.
`COc1ccc2c(=O)n(-c3ccccc3Cl)c(SCc3ccc(C(=O)Nc4ccccc4N)cc3)nc2c1` showed an inhibition at 2 µM (A-375 [1]) of 41.8%, an Activity (SMMC-7721 [2]) of 13.1% and an inhibition at 8 µM (A549 [3]) of 80.6%. For the same compound, the inhibition (SMMC-7721 [4]) was “Dose-dependent effect”, the IC50 (NIH3T3) was 3.39 µM and the Activity (SMMC-7721 [5]) was 31.29%. For the same compound, the inhibition at 8 µM (HCT-116 [6]) was 83.3%, the Activity (SMMC-7721 [7]) was 19.1% and the IC50 (A549 [8]) was 6.27 µM. For the same compound, the Activity (SMMC-7721 [9]) was 2.7%, the inhibition at 2 µM (HeLa [10]) was 54.4% and the Activity (SMMC-7721 [11]) was 28.44%. The IC50 (A-375 [12]) was 3.51 µM, the inhibition at 8 µM (SMMC-7721 [13]) was 84.1% and the Activity (SMMC-7721 [14]) was 27.52%. The inhibition (Histone deacetylase 2) was “Active”, the IC50 (HeLa [15]) was 1.32 µM and the Activity (SMMC-7721 [16]) was 34.49%. It also gave an Activity (SMMC-7721 [17]) of 45.18%, a viability at 0.25 µM (SMMC-7721 [18]) of 68.3% and an Activity (SMMC-7721 [19]) of 15.9%. For the same compound, the Activity (SMMC-7721 [20]) was 7.63%, the Activity (SMMC-7721 [21]) was “Dose-dependent effect” and the Activity (SMMC-7721 [25]) was “Dose-dependent effect”. The inhibition at 2 µM (HCT-116 [22]) was 43.7%, the Activity (SMMC-7721 [23]) was 8.28% and the Activity (SMMC-7721 [24]) was 7.67%.
